#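 Briefly, cells in 96-well plates were exposed to five compound concentrations for 48 h, and endpoints were estimated by linear interpolation. The concentration for 50% growth inhibition is given as GI50. The concentration for full growth arrest is given as TGI.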
# Key:
# Assay in all cases: DTP human tumour cell line panel, 48 h
# M14 melanoma = tested on: M14 melanoma
# CCRF-CEM leukemia = tested on: CCRF-CEM leukemia
# HCT-116 colon = tested on: HCT-116 colon
# SW-620 colon = tested on: SW-620 colon
# SK-MEL-5 melanoma = tested on: SK-MEL-5 melanoma
# MALME-3M melanoma = tested on: MALME-3M melanoma
# OVCAR-5 ovarian = tested on: OVCAR-5 ovarian
# ACHN renal = tested on: ACHN renal
# NCI/ADR-RES ovarian = tested on: NCI/ADR-RES ovarian
# SNB-19 CNS = tested on: SNB-19 CNS
SMILES,GI50 (M14 melanoma),TGI (M14 melanoma),GI50 (CCRF-CEM leukemia),TGI (CCRF-CEM leukemia),GI50 (HCT-116 colon),TGI (HCT-116 colon),GI50 (SW-620 colon),TGI (SW-620 colon),GI50 (SK-MEL-5 melanoma),TGI (SK-MEL-5 melanoma),GI50 (MALME-3M melanoma),TGI (MALME-3M melanoma),GI50 (OVCAR-5 ovarian),TGI (OVCAR-5 ovarian),GI50 (ACHN renal),TGI (ACHN renal),GI50 (NCI/ADR-RES ovarian),TGI (NCI/ADR-RES ovarian),GI50 (SNB-19 CNS),TGI (SNB-19 CNS)
COc1ccc(N(C)c2nc(N)nc3sc4c(c23)CCCC4)cc1,< 0.01 µM,11.4 µM,< 0.01 µM,55.5 µM,< 0.01 µM,11.3 µM,< 0.01 µM,16.4 µM,< 0.01 µM,0.505 µM,< 0.0125 µM,18.9 µM,< 0.0125 µM,19.5 µM,< 0.01 µM,14.6 µM,< 0.01 µM,14.4 µM,< 0.01 µM,16.9 µM
c1ccc2c3c([nH]c2c1)C(c1ccc(C2NCCc4c2[nH]c2ccccc42)cc1)NCC3 (stereo not given),0.403 µM,1.58 µM,0.452 µM,2.03 µM,0.17 µM,0.335 µM,0.185 µM,0.344 µM,1.7 µM,3.13 µM,1.55 µM,3.11 µM,1.81 µM,4.17 µM,0.713 µM,2 µM,2.1 µM,7.81 µM,1.73 µM,3.54 µM
CC(=O)[O][Hg][c]1c(C)c(C)cc(C)c1C,1.36 µM,2.88 µM,0.39 µM,13.5 µM,1.85 µM,3.66 µM,0.732 µM,2.31 µM,1.8 µM,4.66 µM,1.33 µM,2.75 µM,1.94 µM,3.84 µM,3.71 µM,8.18 µM,2.96 µM,9.14 µM,1.7 µM,3.76 µM
Cc1cc(Cl)nc(N(CCCNc2ccnc3cc(Cl)ccc23)Cc2ccco2)n1,1.88 µM,4.08 µM,2.32 µM,8.93 µM,1.42 µM,4.17 µM,2.5 µM,10.3 µM,1.54 µM,3.01 µM,2.21 µM,5.58 µM,3.12 µM,22.6 µM,3 µM,12 µM,1.76 µM,6.87 µM,3.46 µM,14.7 µM
c1cc2c(cn1)Nc1ccncc1S2,32.6 µM,> 100 µM,37.3 µM,> 100 µM,17.9 µM,69.5 µM,35.4 µM,> 100 µM,36.3 µM,> 100 µM,> 100 µM,> 100 µM,25.2 µM,> 100 µM,26.8 µM,> 100 µM,37.1 µM,> 100 µM,39 µM,> 100 µM
CC1=C(Nc2ccc(N3CCN(C)CC3)cc2)C(=O)c2cncnc2C1=O,14.9 µM,32.2 µM,2.6 µM,> 100 µM,2.48 µM,6.13 µM,2.54 µM,8.04 µM,14.4 µM,27.6 µM,8.96 µM,21.7 µM,3.66 µM,16.9 µM,2.31 µM,5.88 µM,3.09 µM,20.3 µM,17.2 µM,37.2 µM
COc1nnc2ccc(N3CCC(c4ccc(OCCN5CCN(C)C(=O)[C@H]5C)cc4)CC3)nn12,0.0934 µM,> 100 µM,0.323 µM,> 100 µM,0.0723 µM,> 100 µM,5.03 µM,> 100 µM,0.155 µM,13.7 µM,0.431 µM,> 100 µM,0.492 µM,> 100 µM,0.172 µM,> 100 µM,0.845 µM,> 100 µM,0.224 µM,> 100 µM
O=[N+]([O-])c1cccc(C2CC(c3ccccc3)=Nc3ccccc3S2)c1 (stereo not given),19.2 µM,44.6 µM,5.91 µM,> 100 µM,2.94 µM,9 µM,3.03 µM,12 µM,15.9 µM,29.6 µM,17.9 µM,46.1 µM,13.9 µM,28.1 µM,13.9 µM,28.5 µM,22.1 µM,> 100 µM,15.4 µM,44.8 µM
O=C(CN1C(=O)S/C(=C\C(Cl)=C\c2ccccc2)C1=O)NC1C=CS(=O)(=O)C1 (stereo not given),1.31 µM,4.69 µM,0.327 µM,> 100 µM,0.377 µM,1.83 µM,0.553 µM,2.86 µM,1.72 µM,3.22 µM,1.27 µM,3.93 µM,2.31 µM,6.13 µM,0.931 µM,8.65 µM,1.99 µM,> 100 µM,2.76 µM,11.5 µM
CCOC(=O)c1cnc2c(C)cccc2c1Nc1ccc(C(C)=O)cc1,77.8 µM,> 100 µM,> 100 µM,> 100 µM,14.2 µM,> 100 µM,92.6 µM,> 100 µM,3.75 µM,19.7 µM,28.7 µM,> 100 µM,34.6 µM,> 100 µM,33.5 µM,> 100 µM,16.5 µM,72.5 µM,40.2 µM,> 100 µM
N#CC1c2ccccc2C=CN1C(=O)N(c1ccccc1)c1ccccc1 (stereo not given),2.19 µM,5.19 µM,2.97 µM,8.99 µM,2.05 µM,4.35 µM,2.27 µM,5.3 µM,4.03 µM,14.8 µM,1.61 µM,3.55 µM,7.45 µM,24.3 µM,1.79 µM,3.3 µM,5.52 µM,34 µM,13.8 µM,26.8 µM
C#CCOc1ccc2ncnc(Nc3ccc(NC(=O)C=C)cc3)c2c1,34.4 µM,> 100 µM,4.26 µM,40.8 µM,10.9 µM,35.9 µM,6.3 µM,33.1 µM,> 100 µM,> 100 µM,6.23 µM,30.2 µM,> 100 µM,> 100 µM,28.2 µM,> 100 µM,> 100 µM,> 100 µM,> 100 µM,> 100 µM

# — PubChem BioAssay (NCI)
